Columns and labels:
[1] = target: T1, Neuropeptide Y receptor type 1 (Homo sapiens, UniProt P25929); experiment: Antagonist activity at Y1 receptor in human HEL cells assessed as reduction in pNPY-induced calcium mobilization preincubated for 15 mins followed by pNPY stimulation and measured immediately by Fura-2 dye based fluorescence assay; format: functional, cell-based
T1 sequence (P25929 whole entry): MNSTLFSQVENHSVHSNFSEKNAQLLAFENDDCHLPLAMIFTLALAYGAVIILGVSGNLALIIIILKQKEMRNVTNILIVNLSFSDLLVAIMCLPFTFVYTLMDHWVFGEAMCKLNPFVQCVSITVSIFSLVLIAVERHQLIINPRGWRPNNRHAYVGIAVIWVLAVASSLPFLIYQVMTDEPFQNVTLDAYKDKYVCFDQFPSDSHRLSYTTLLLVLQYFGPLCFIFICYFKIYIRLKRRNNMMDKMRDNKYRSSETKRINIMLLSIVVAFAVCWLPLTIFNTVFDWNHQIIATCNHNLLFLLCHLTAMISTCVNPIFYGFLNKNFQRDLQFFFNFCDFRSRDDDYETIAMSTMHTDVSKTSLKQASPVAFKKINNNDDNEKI

[2] = target: T2, Neuropeptide Y receptor type 1 (Homo sapiens) (UniProt P25929); details: HEL, filed as antagonist, time 15.0 min
T2 sequence (whole entry): T1 sequence (P25929 whole entry)

[3] = target: T1, Neuropeptide Y receptor type 1; experiment: Displacement of [3H]UR-MK299 from Y1 receptor in human SK-N-MC cells by radioligand binding assay; format: cell-based

| SMILES | IC50 [1] | pKb [2] | Ki [3] |
| --- | --- | --- | --- |
| N/C(=N/C(=O)NCCNC(=O)C1CCC1)NCCC[C@@H](NC(=O)C(c1ccccc1)c1ccccc1)C(=O)NCc1ccc(O)cc1 | 0.24 nM | 10.5 | 1.1 nM |
| N/C(=N/C(=O)NCCNC(=O)C1CC1)NCCC[C@@H](NC(=O)C(c1ccccc1)c1ccccc1)C(=O)NCc1ccc(O)cc1 | 0.24 nM | 10.5 | 1.17 nM |
| CC(C)C(=O)NCCNC(=O)/N=C(/N)NCCC[C@@H](NC(=O)C(c1ccccc1)c1ccccc1)C(=O)NCc1ccc(O)cc1 | 0.0661 nM | 11.1 | 0.309 nM |
| N/C(=N/C(=O)NCCNC(=O)C(F)F)NCCC[C@@H](NC(=O)C(c1ccccc1)c1ccccc1)C(=O)NCc1ccc(O)cc1 | 0.11 nM | – | 0.0676 nM |
| N/C(=N/C(=O)NCCNC(=O)Cc1ccccc1)NCCC[C@@H](NC(=O)C(c1ccccc1)c1ccccc1)C(=O)NCc1ccc(O)cc1 | 95.5 nM | 7.9 | 302 nM |
| N/C(=N/C(=O)NCCNC(=O)C1CCCCC1)NCCC[C@@H](NC(=O)C(c1ccccc1)c1ccccc1)C(=O)NCc1ccc(O)cc1 | 30.9 nM | 8.39 | 380 nM |
| CCC(=O)NCCCNC(=O)/N=C(/N)NCCC[C@@H](NC(=O)C(c1ccccc1)c1ccccc1)C(=O)NCc1ccc(O)cc1 | – | – | 0.0741 nM |
| N/C(=N/C(=O)NCCNC(=O)CO)NCCC[C@@H](NC(=O)C(c1ccccc1)c1ccccc1)C(=O)NCc1ccc(O)cc1 | 0.0912 nM | 10.9 | 0.145 nM |
| N/C(=N/C(=O)NCCNC(=O)C(c1ccccc1)c1ccccc1)NCCC[C@@H](NC(=O)C(c1ccccc1)c1ccccc1)C(=O)NCc1ccc(O)cc1 | 525 nM | 7.16 | 295 nM |
| N/C(=N/C(=O)NCCNC(=O)C(F)(F)F)NCCC[C@@H](NC(=O)C(c1ccccc1)c1ccccc1)C(=O)NCc1ccc(O)cc1 | 0.126 nM | – | 0.0708 nM |
| CC(=O)NCCCNC(=O)/N=C(/N)NCCC[C@@H](NC(=O)C(c1ccccc1)c1ccccc1)C(=O)NCc1ccc(O)cc1 | – | – | 0.0631 nM |
| N/C(=N/C(=O)NCCNC(=O)CCCl)NCCC[C@@H](NC(=O)C(c1ccccc1)c1ccccc1)C(=O)NCc1ccc(O)cc1 | 0.589 nM | – | 0.38 nM |
| N/C(=N/C(=O)NCCNC(=O)C1CCCC1)NCCC[C@@H](NC(=O)C(c1ccccc1)c1ccccc1)C(=O)NCc1ccc(O)cc1 | 7.59 nM | 9 | 52.5 nM |
| N/C(=N/C(=O)NCCNC(=O)CF)NCCC[C@@H](NC(=O)C(c1ccccc1)c1ccccc1)C(=O)NCc1ccc(O)cc1 | 0.055 nM | – | 0.0316 nM |
| N/C(=N/C(=O)NCCNC(=O)c1ccc(F)cc1)NCCC[C@@H](NC(=O)C(c1ccccc1)c1ccccc1)C(=O)NCc1ccc(O)cc1 | 16.2 nM | 8.67 | 295 nM |
| N/C(=N/C(=O)NCCNC(=O)c1ccccc1)NCCC[C@@H](NC(=O)C(c1ccccc1)c1ccccc1)C(=O)NCc1ccc(O)cc1 | 11.5 nM | 8.82 | 56.2 nM |
| CC(=O)NCCNC(=O)/N=C(/N)NCCC[C@@H](NC(=O)C(c1ccccc1)c1ccccc1)C(=O)NCc1ccc(O)cc1 | – | – | 0.0589 nM |
| Cc1cc(/C=C/C=C/c2ccc(N(C)C)cc2)cc(C)[n+]1CCNC(=O)/N=C(/N)NCCC[C@@H](NC(=O)C(c1ccccc1)c1ccccc1)C(=O)NCc1ccc(O)cc1 | – | – | 102 nM |
| N/C(=N/C(=O)NCCNC(=O)CBr)NCCC[C@@H](NC(=O)C(c1ccccc1)c1ccccc1)C(=O)NCc1ccc(O)cc1 | 0.0617 nM | 11.1 | 0.126 nM |
| CC(C)(C)C(=O)NCCNC(=O)/N=C(/N)NCCC[C@@H](NC(=O)C(c1ccccc1)c1ccccc1)C(=O)NCc1ccc(O)cc1 | 14.5 nM | 8.71 | 45.7 nM |
| C=CC(=O)NCCNC(=O)/N=C(/N)NCCC[C@@H](NC(=O)C(c1ccccc1)c1ccccc1)C(=O)NCc1ccc(O)cc1 | 0.186 nM | 10.6 | 0.112 nM |
| N/C(=N/C(=O)NCCNC(=O)CCl)NCCC[C@@H](NC(=O)C(c1ccccc1)c1ccccc1)C(=O)NCc1ccc(O)cc1 | 0.0794 nM | – | 0.0525 nM |
